Entries after “also recorded” stand apart in the source; their conditions may differ. Like-named read-outs stand apart in the source and are kept apart here. Where only a bound is given, the exact number is not on record here.

By Kd is commonly meant the free concentration of one partner at which half of the binding sites on the other are occupied at equilibrium, for simple one-to-one binding.

Data set [1] addresses T1, apo riboflavin binding protein from eggs (Gallus gallus, UniProt P02752).
T1 construct: obtained in homogeneous form from chicken egg white; from tissue; host or cells: chicken egg white
T1 sequence (P02752 18-238): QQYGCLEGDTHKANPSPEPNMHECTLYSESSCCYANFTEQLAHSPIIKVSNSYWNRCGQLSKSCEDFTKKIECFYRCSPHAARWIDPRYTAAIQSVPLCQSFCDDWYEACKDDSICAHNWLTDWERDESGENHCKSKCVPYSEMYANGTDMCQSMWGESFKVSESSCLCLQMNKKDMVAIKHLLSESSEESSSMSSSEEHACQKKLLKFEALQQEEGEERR
Briefly: Titration of antibiotic with egg riboflavin binding protein; dissociation constant. Also on record: species or system chicken. How it is done:
The purified protein may be stored, for example, frozen at -20° C. in 10 mM potassium phosphate, 1 mM EDTA pH 7.0 buffer, at concentrations between about 1 and 10 mM.
A working solution of adriamycin was obtained by dissolution in warm 0.035M potassium phosphate pH 7.0 buffer containing 0.15M NaCl and 0.5 mM EDTA and cooled to ambient temperature (24±2° C.). To a 3.0 mL solution containing 3 μM adriamycin was added 5.0 μL increments of a 0.49 mM binding protein solution in 10 mM potassium phosphate, 1 mM EDTA pH 7.0 buffer.
Daunomycin was dissolved in warm buffer, followed by cooling. […] AD-32 was dissolved in dimethylformamide.
The binding protein affinity of three anthracyclinones was determined: (±)-aklavinone, 7-deoxydaunomycinone and iso-7-deoxydaunomycinone. Aklavinone and 7-deoxydaunomycinone were made as concentrated solutions in dimethylformamide, and the solution concentrations determined by dilution into alcohol. Leuco iso-7-deoxydaunomycinone was dissolved in dimethylformamide and diluted into buffer. The general procedure of Example 1 was followed.
Solutions were prepared and admixed as previously described.

In data set [2] the target is T1, apo riboflavin binding protein from eggs. The experiment in a line: Anaerobic dithionite redox titration of the daunomycin-binding protein complex. The arrangement: species or system chicken. The source says:
A further use of the antibiotic-protein complex is in redox titrations. Aqueous redox titrations of anthracyclines cannot be done. Although anthracycline glycosides are water soluble, loss of the glycoside (with its positive charge) provides the almost completely water insoluble 7-deoxyanthracyclinones. Unfortunately, glycoside loss is an integral aspect of anthracycline redox chemistry. The binding protein-anthracyclinecomplex has been used for anaerobic aqueous redox titrations. Dithionite reduction of the anthracycline glycoside provides, in a 2e^- process, the 7-deoxyanthracyclinone, via reductive elimination. The bound 7-deoxyanthracyclinone is then further 2e^- reduced to the bound hydroquinone. Semi-quinone radical intermediates are observed transiently; these are stable neither in solution nor complexed to the binding protein. Oxidation of the hydroquinone is accomplished by several reagents (oxygen, hydrogen peroxide, ferricyanide, cytochrome c). In the case of 7-deoxydaunomycinone hydroquinone, a mixture of two products is produced upon oxidation; these are the chromo 7-deoxydaunomycinone (identical to the first 2e^- reduction intermediate) and its leuco isomer, 8-acetyl-7,8,9,10-tetrahydro-5,8,12-trihydroxy-1-methoxy-6,11-napthacenedione(iso-7-deoxydaunomycinone).
An anaerobic redox titration of the daunomycin-binding protein complex was done. […]

Data set [3] can be described thus: Stability of free and binding protein-complexed compound (isomerization, light, storage). It counts as physicochemical. The source says: Also of interest is the high affinity of the binding protein for iso-7-deoxydaunomycinone(8-acetyl-7,8,9,10-tetrahydro-5,8,12-trihydroxy-1- methoxy-6,11-napthacenedione). This compound is a kinetic product of 7-deoxydaunomycinone hydroquinone oxidation.
An anaerobic redox titration of the daunomycin-binding protein complex was done. The reducing agent used was dithionite anion. Spectrophotometric titrations were made on a Cary 219 spectrophotometer. Anaerobic titrations were done with gas tight syringes, with the deoxygenated solutions maintained under a positive pressure of O2 -free nitrogen. Dithionite was freshly prepared in O2 -free buffer and standardized by anaerobic riboflavin titration. Equilibration with dithionite is in all instances complete in seconds. […] Assignment of structure to this titration intermediate was confirmed by its isolation, and chromatographic comparison with an authentic sample. Further dithionite addition reduces the bound 7-deoxydaunomycinone to a new chromophore (λmax =407 nm). The hydroquinone is not further reduced, but is very easily oxidized upon mixing with oxidants such as oxygen, hydrogen peroxide, ferricyanide and cytochrome c. The absorption spectrum obtained following complete oxygen oxidation of the hydroquinone is different than any previous spectrum. Longer wavelength features, indicating the presence of 7-deoxydaunomycinone, are seen but a new chromophore (λmax approximately 445 nm) is also present. The structure of the compound corresponding to this chromophore is iso-7-deoxydaunomycinone on the basis of its spectroscopic data. In neutral aqueous buffer in the absence of the binding protein this compound promptly isomerizes to 7-deoxydaunomycinone (k=6×10^-4 s^-1). […] Binding protein stabilization is also reflected in an estimated 10-fold slower rate of dithionite reduction of the iso-7-deoxydaunomycinone compared to either 7-deoxydaunomycinone or daunomycin.

The mark [4] stands for this setting: general procedure of Example 1, read-out: Kd (anthracycline glycosides, Examples 2-7).
The mark [5] stands for this setting: general procedure of Example 1, read-out: Kd (anthracyclinones, Examples 8-10).
The mark [6] stands for this setting: spectrophotometric, solutions prepared and admixed as previously described, read-out: Kd (anthraquinones and anthraquinone-like molecules, Examples 11-15).

With `CC[C@@]1(O)C[C@H](O)c2c(cc3c(c2O)C(=O)c2c(O)cccc2C3=O)[C@H]1C(=O)OC` (relative stereo) [(±)-Aklavinone], in data set [1], the equilibrium dissociation constant (Kd) worked out at 0.02 µM; the “binding to the binding protein (in words)” value (“binding … (in words)” below) was “both enantiomers of the racemic aklavinone (7S, 9R, 10R, and 7R, 9S, 10S) are equally well bound”.
Consider `CC(=O)[C@]1(O)Cc2c(O)c3c(c(O)c2[C@@H](O[C@H]2C[C@H](N)[C@H](O)[C@H](C)O2)C1)C(=O)c1ccccc1C3=O` [4-Demethoxydaunomycin], for which the “binding … (in words)” value in data set [1] is on record as “bind with an affinity hardly different than that of adriamycin”. The Kd in data set [1] (setting [4]) came to 0.3 µM.
For `CC(=O)[C@@]1(O)Cc2c(O)c3c(c(O)c2[C@H](O[C@H]2C[C@H](N)[C@H](O)[C@H](C)O2)C1)C(=O)c1ccccc1C3=O` [7,9-Diepi-4-demethoxydaunomycin], in that order: “binds most tightly of all” and 0.08 µM.
For `COc1cccc2c1C(=O)c1c(O)c3c(c(O)c1C2=O)C[C@@](O)(C(C)=O)CC3` [7-Deoxydaunomycinone], in data set [1] (setting [5]), the Kd was found to be 0.08 µM.
Turning to `CCCCC(=O)OCC(=O)[C@]1(O)Cc2c(O)c3c(c(O)c2[C@@H](O[C@H]2C[C@H](NC(=O)C(F)(F)F)[C@H](O)[C@H](C)O2)C1)C(=O)c1c(OC)cccc1C3=O` [AD-32, N-trifluoroacetyl-14-valeryl-adriamycin], in data set [1], the “binding … (in words)” value is on record as “binds well; also recorded: tight binding”. Besides, the “formation of AD-32-binding protein complex” value in data set [1] (concentrated DMF solution added to slight molar excess of apo protein, approximately 20 μM each) was “quantitative formation of the AD-32-binding protein complex”.
As to `CC[C@@]1(O)C[C@H](O[C@H]2C[C@H](N(C)C)[C@H](O[C@H]3C[C@H](O)[C@H](O[C@H]4CCC(=O)[C@H](C)O4)[C@H](C)O3)[C@H](C)O2)c2c(cc3c(c2O)C(=O)c2c(O)cccc2C3=O)[C@H]1C(=O)OC` [Aclacinomycin A], in data set [1], the dissociation constant (Kd) came to 1 µM and the “binding … (in words)” value is reported as “bind with an affinity hardly different than that of adriamycin”. In addition, in data set [1] (listed as aclacinomycin A), the “binding … (in words)” value is listed as “tight binding”.
Consider `COc1cccc2c1C(=O)c1c(O)c3c(c(O)c1C2=O)C[C@@](O)(C(=O)CO)C[C@@H]3O[C@H]1C[C@H](N)[C@H](O)[C@H](C)O1` [Adriamycin], for which, in data set [1], the equilibrium dissociation constant (Kd) was determined as 0.5 ± 0.1 µM and the “binding … (in words)” value is recorded as “good binding”.
As to `Cc1c(C(=O)O)c(O)cc2c1C(=O)c1c(O)c([C@@H]3O[C@H](CO)[C@@H](O)[C@H](O)[C@H]3O)c(O)c(O)c1C2=O` [Carminic acid], in data set [1], the “binding … (in words)” value is reported as “neither tetracycline nor carminic acid (an insect feeding deterrent) bind”. Moreover, the equilibrium dissociation constant (Kd) in data set [1] (setting [6]) was > 250 µM.
With `CN(C)CCCN1c2ccccc2Sc2ccc(Cl)cc21` [Chlorpromazine], the “binding … (in words)” value in data set [1] is “high affinity”. Moreover, the dissociation constant (Kd) in data set [1] (setting [6]) was ~1 µM.
Take `O=C1c2c(O)ccc(O)c2C(=O)c2c(NCCNCCO)ccc(NCCNCCO)c21` [DHAQ, 1,4-dihydroxy-5,8-bis[[2-(hydroxyethyl)amino]ethyl]-9. 10-anthracenedione]: in data set [1], the “binding … (in words)” value is “bound weakly”. In data set [1] (setting [6]), the dissociation constant Kd was 60 µM.
Take `COc1cccc2c1C(=O)c1c(O)c3c(c(O)c1C2=O)C[C@@](O)(C(C)=O)C[C@@H]3O[C@H]1C[C@H](N)[C@H](O)[C@H](C)O1` [Daunomycin]: the “redox behaviour in titration (in words)” value in data set [2] (anaerobic, dithionite, oxidation by oxygen, hydrogen peroxide, ferricyanide, cytochrome c) is reported as “first converted in a 2e^- process to 7-deoxydaunomycinone, with reductive elimination of the glycoside”. In data set [1], the Kd was 0.4 µM and the “binding … (in words)” value was “bind with an affinity hardly different than that of adriamycin”.
Take `COc1cccc2c(O)c3c(c(O)c12)C(=O)C1=C(C[C@@](O)(C(C)=O)CC1)C3=O` [Iso-7-deoxydaunomycinone, 8-acetyl-7,8,9,10-tetrahydro-5,8,12-trihydroxy-1-methoxy-6,11-napthacenedione]: the “stability (in words)” value is “stable in organic solvents and when complexed to the binding protein; also recorded: stable for days” in data set [3] (complexed to the binding protein); “not stable in aqueous buffer to isomerization to 7-deoxydaunomycinone; also recorded: stable in organic solvents” in data set [3] (free compound, aqueous buffer or organic solvents). Also, the “rate constant k of isomerization to 7-deoxydaunomycinone” value in data set [3] (neutral aqueous buffer, absence of the binding protein) stood at 0.0006 s⁻¹. The “slower rate of dithionite reduction compared to either 7-deoxydaunomycinone or daunomycin” value in data set [2] (binding protein stabilization, estimated) is given as ~10 fold. Besides, the “binding … (in words)” value in data set [1] is on record as “high affinity; also recorded: preferentially bound by the riboflavin binding protein”. The equilibrium dissociation constant (Kd) in data set [1] (setting [5]) amounted to 0.02 µM.
For `COC(=O)[C@@H]1c2cc3c(c(O)c2[C@@H](O[C@@H]2O[C@@H](C)[C@H](OC)[C@@](C)(OC)[C@H]2OC)C[C@]1(C)O)C(=O)c1c(O)cc2c(c1C3=O)O[C@@H]1O[C@@]2(C)[C@H](O)[C@@H](N(C)C)[C@@H]1O` [Nogalomycin], the “binding … (in words)” value in data set [1] is reported as “All save nogalomycin bind”. Further, the Kd in data set [1] (setting [4]) was > 1000 µM.
For the compound `CCN(CC)CCCC(C)Nc1c2ccc(Cl)cc2nc2ccc(OC)cc12` (centres unmarked) [Quinacrine], the “binding … (in words)” value in data set [1] is “high affinity”.
Regarding `CN(C)[C@@H]1C(=O)C(C(N)=O)=C(O)[C@@]2(O)C(=O)C3=C(O)c4c(O)cccc4[C@@](C)(O)[C@H]3C[C@@H]12` [Tetracycline], in data set [1], the dissociation constant Kd was > 250 µM and the “binding … (in words)” value is given as “neither tetracycline nor carminic acid (an insect feeding deterrent) bind”.
In the case of `Cc1cc2nc3c(=O)[nH]c(=O)nc-3n(C[C@H](O)[C@H](O)[C@H](O)CO)c2cc1C` [riboflavin], in data set [1], the “binding … (in words)” value is reported as “no compound is more tightly bound by the egg binding protein than riboflavin”.

(Values after patent publication US4534971A, “Complexation of anthracycline and anthraquinone antibiotics by the apo riboflavin binding protein from eggs” (Regents of the University of Minnesota, priority 1982, dated 1985).)
